Values quoted from earlier work in patent publication US20040243224A1, “Methods and compositions for inhibiting narrowing in mammalian vascular pathways” (Medtronic Vascular, Inc., priority 2003, published 2004).

Key:
Conditions in all cases: stated as known in the art, no data
[1] = system: laboratory tumor cell lines
Tetrahymena furgasoni = system: Tetrahymena furgasoni
Ustilago maydis = system: Ustilago maydis

## COc1cc(O)c2c(c1)[C@H]1O[C@@H]1C[C@H](O)[C@H](O)C(=O)/C=C\C[C@H](C)OC2=O [Hypothemycin, hypothemycin]
[1]
  anti-tumor activity on laboratory tumor cell lines: exhibits anti-tumor activity
Tetrahymena furgasoni
  activity against Tetrahymena furgasoni: active
Ustilago maydis
  activity against Ustilago maydis: active
